Measured values as given in patent US20070054927A1, “Fungicidal mixtures” (BASF AKTIENGESELLSCHAFT, priority 2003, published 2007).

System: Plasmopara viticola
Assay: activity against peronospora of grapevines caused by Plasmopara viticola, protective application
Format: in vivo
Details: individual active compound, potted vines Müller-Thurgau, untreated control 71% infection
Method: The active compounds, separately or jointly, were prepared as a stock solution comprising 0.25% by weight of active compound in acetone or DMSO. 1% by weight of the emulsifier Uniperol® EL (wetting agent having emulsifying and dispersant action based on ethoxylated alkylphenols) was added to this solution, and the mixture was diluted with water to the desired concentration.
Use example—activity against peronospora of gravevines caused by Plasmopara viticola, protective application
Leaves of potted vines of the cultivar “Müller-Thurgau” were sprayed to runoff point with an aqueous suspension having the concentration of active compound stated below. The next day, the undersides of the leaves were inoculated with an aqueous zoospore suspension of Plasmopara viticola. The grapevines were then initially placed in a water-vapor-saturated chamber at 24° C. for 48 hours and then in a greenhouse at 20-30° C. for 5 days. After this period of time, the plants were again placed in a humid chamber for 16 hours to promote sporangiophore eruption. The extent of the development of the disease on the undersides of the leaves was then determined visually.
The visually determined percentages of infected leaf areas were converted into efficacies in % of the untreated control:
The efficacy (E) is calculated as follows using Abbot's formula: E=(1−α/β)·100 • α corresponds to the fungicidal infection of the treated plants in % and • β corresponds to the fungicidal infection of the untreated (control) plants in %
An efficacy of 0 means that the infection level of the treated plants corresponds to that of the untreated control plants; an efficacy of 100 means that the treated plants were not infected.
The expected efficacies of mixtures of active compounds were determined using Colby's formula (Colby, S. R. “Calculating synergistic and antagonistic responses of herbicide combinations”, Weeds, 15, 20-22, 1967) and compared with the observed efficacies.
Colby's formula: E=x+y−x·y/100 • E expected efficacy, expressed in % of the untreated control, when using the mixture of the active compounds A and B at the concentrations a and b • x efficacy, expressed in % of the untreated control, when using the active compound A at the concentration a • y efficacy, expressed in % of the untreated control, when using the active compound B at the concentration b

For `CC1CCN(c2c(-c3c(F)cc(F)cc3F)c(Cl)nc3ncnn23)CC1` [I, 5-chloro-7-(4-methylpiperidin-1-yl)-6-(2,4,6-trifluorophenyl)-[1,2,4]triazolo[1,5-a]pyrimidine], the “Efficacy in % of the untreated control” value (4 ppm in the spray liquor) was 1% and the “Efficacy in % of the untreated control” value (16 ppm in the spray liquor) was 44%.
In the case of `CC1(C)CCC(Cc2ccc(Cl)cc2)C1(O)Cn1cncn1` (centres unmarked) [II (metconazole), 5-(4-chlorobenzyl)-2,2-dimethyl-1-[1,2,4]triazol-1-ylmethylcyclopentanol], the “Efficacy in % of the untreated control” value (4 ppm in the spray liquor) is reported as 1% and the “Efficacy in % of the untreated control” value (16 ppm in the spray liquor) is reported as 1%.
In the case of `CC1CCN(c2c(-c3c(F)cccc3Cl)c(Cl)nc3ncnn23)CC1` [comparative compound A], the “Efficacy in % of the untreated control” value (4 ppm in the spray liquor) is reported as 0% and the “Efficacy in % of the untreated control” value (16 ppm in the spray liquor) is reported as 15%.
With `C[C@H](Nc1c(-c2c(F)cc(F)cc2F)c(Cl)nc2ncnn12)C(F)(F)F` [comparative compound B] the “Efficacy in % of the untreated control” value (4 ppm in the spray liquor) was 15% and the “Efficacy in % of the untreated control” value (16 ppm in the spray liquor) was 29%.
